Measurements published in patent US9556437B2, “FAT1 gene in cancer and inflammation” (DEPARTMENT OF BIOTECHNOLOGY (DBT), priority 2012, dated 2017).
“Also recorded” adds a separate entry of the source.

Experiments:
Format in all cases: cell-based, human
[1] = test system: U87MG cells; experiment: Cell cycle analysis by flow cytometry (PI staining); conditions: FACS, 72 hrs after transfection, vs siControl
Protocol: On day 1, siRNA transfection was carried out. 1 ml of OPTIMEM, 50 picomoles of siRNA (siControl and siFAT1) and 3 μl of LIPOFECTAMINE 2000 was used per well. Cells were then analyzed by flow-cytometery after 72 hrs of transfection to assess the cell cycle distribution of individual cells. Cells were fixed in 70% ethanol overnight at −20′C followed by propidium iodide (PI) staining. Florescence was measured on FACS (florescence activated cell sorter, BD Biosciences, Bedford, Mass.). […] On day 1, transfection was carried out. 50 μl of OPTIMEM, 2 picomoles of siRNA (control and FAT1 siRNA) and 0.5 μl of LIPOFECTAMINE 2000 was used per well. After 4 hrs incubation at 37° C., 50 μl 2× media was added per well. After every time point (24, 48, 72 and 96 hrs of transfection), media was removed from wells and 100 μl of MTT (0.2 mg/ml) was added per well and incubated for 2-4 hrs. The formazan crystals formed were dissolved by addition of 100 μl of DMSO and absorbance was measured at 570 nm.

[2] = test system: COX-2 promoter; experiment: COX-2 promoter luciferase assay; conditions: U87MG, vs siControl+DMSO; SR11302 10 μM, 48 hrs
Protocol: AP-1 and COX-2 Promoter Luciferase Assay: U87MG cells (40000 cells/well) were plated in 6-well plates in triplicate on day zero. On day 1, cells were transfected with siFAT1 and siControl. On day 2 cells were transiently transfected with 4×AP-1-luciferase reporter plasmids as described previously. Cells were transfected with 1 μg of AP-17× luciferase reporter plasmid, along with 50 ng of pRL-TK (Renilla luciferase) control plasmid using LIPOFECTAMINE2000 as the transfection reagent. After 48 hrs, the cells were lysed by 1× passive-lysis-buffer (Promega, Madison, Wis., USA) and assayed for luciferase activity as previously described. For COX-2 luciferase assay U87MG cells were transfected with siFAT1 and siControl on day 1 and after 4 hrs incubation were treated with 10 μM SR11302. On day2 cells were transiently transfected with COX-2 reporter plasmid and again treated with 10 μM SR11302. After 48 hrs, the cells were assayed for luciferase activity.

[3] = test system: PLAU (Urokinase); experiment: PLAU mRNA expression by q-PCR; conditions: U87MGsiFAT1 cells
Protocol: (§1) Cell Culture and siRNA Transfection: The human glioma cell lines U87MG, U373, A172, T98G, GOS3 and SW1088 were obtained from ATCC; Rockville, Md., cultured in DMEM (Sigma-Aldrich, Switzerland) supplemented with 10% (v/v) FCS (Sigma-Aldrich), 3.7 g/l sodium bicarbonate (Sigma-Aldrich), Ciprofloxacin 10 μg/ml and 5% CO2 at 37° C. For transfection, 2×10^5 cells were seeded per 25 cm^2 flask. After 24 hrs, cells were transfected with FAT1 siRNA and universal medium GC control siRNA (Invitrogen) according to the manufacturer's protocol with a final concentration of 20 nM of siRNA using LIPOFECTAMINE 2000 (Invitrogen) and Opti-Mem media (Invitrogen). After 4 hrs of siRNA transfection, the media was supplemented with DMEM containing 2×FCS. The ability of each siRNA to mediate knockdown of FAT1 mRNA was confirmed using qRT-PCR. Photomicrographs of the cells were taken using an inverted phase contrast microscope (Nikon TMS, Phase contrast microscope, Japan). For simultaneous knockdown of FAT1 and PDCD4, siRNA from Dharmacon were used. Transfection was performed as earlier with 50 nM of FAT1 siRNA along with 50 nM of PDCD4 siRNA or 50 nM of control siRNA.
(§2) cDNA Synthesis and Quantitative PCR: Total RNA was isolated from cells at appropriate time point (vide supra) using TRIzol reagent (Invitrogen), quantified using a Nanodrop ND-1000 spectrophotometer. […]

[4] = test system: U87MG cells; experiment: Apoptosis by caspase3 Western blot and DAPI staining; conditions: 72 hrs of transfection
[5] = test system: IL6; experiment: IL6 mRNA expression by q-PCR; conditions: U87MGsiFAT1 vs siControl
Protocol: as §1, with “The ability of each siRNA to mediate knockdown of FAT1 mRNA was confirmed using qRT-PCR.” left out
cDNA Synthesis and Quantitative PCR: Total RNA was isolated from cells at appropriate time point (vide supra) using TRIzol reagent (Invitrogen), quantified using a Nanodrop ND-1000 spectrophotometer.

[6] = test system: VEGF-C; experiment: VEGF-C mRNA expression by q-PCR; conditions: U87MGsiFAT1 cells
Protocol: as §1, §2

Substance: siFAT1: FAT1 specific siRNA (Invitrogen), FAT Stealth RNAi siRNA-I (HSS103567), used for further experiments (sense CCCAACACACCUGUGGUCAUGGUAA; antisense UUACCAUGACCACAGGUGUGUUGGG; Stealth modification, chemistry not fully specified; listed as Homo sapiens)
- distribution of cell population in different phases of cell cycle [1]: no variation; also recorded: No difference
- decrease in COX-2 luciferase activity [2]: 1.8 fold
- decrease in PLAU mRNA expression [3]: more than 10 fold
- DNA fragmentation (DAPI staining) [4]: no DNA fragmentation; also recorded: No differences
- cleaved caspase-3 (Western blot) [4]: no cleaved caspase-3; also recorded: No differences
- reduction in IL6 mRNA expression [5]: ~10 fold
- decrease in VEGF-C mRNA expression [6]: more than 10 fold
